This note sets out measurements from ChEMBL document CHEMBL5241111, “Non-steroidal anti-inflammatory drugs: recent advances in the use of synthetic COX-2 inhibitors” (RSC Med Chem, 2022).

One may read the IC50 as the concentration needed to halve the response being measured. By inhibition is commonly meant the change of the read-out against control, counted positive when it falls. High values mean a response far below the control, low ones a response near the control. A word on the inhibition in vivo: it is the change of the read-out against control, counted positive when it falls.

Molecules are shown by their SMILES. In brackets after ≈: the same amount, converted by molar mass.

Assay [1] deals with T1, Prostaglandin G/H synthase 2 (Homo sapiens) (UniProt P35354).
T1 sequence (whole entry): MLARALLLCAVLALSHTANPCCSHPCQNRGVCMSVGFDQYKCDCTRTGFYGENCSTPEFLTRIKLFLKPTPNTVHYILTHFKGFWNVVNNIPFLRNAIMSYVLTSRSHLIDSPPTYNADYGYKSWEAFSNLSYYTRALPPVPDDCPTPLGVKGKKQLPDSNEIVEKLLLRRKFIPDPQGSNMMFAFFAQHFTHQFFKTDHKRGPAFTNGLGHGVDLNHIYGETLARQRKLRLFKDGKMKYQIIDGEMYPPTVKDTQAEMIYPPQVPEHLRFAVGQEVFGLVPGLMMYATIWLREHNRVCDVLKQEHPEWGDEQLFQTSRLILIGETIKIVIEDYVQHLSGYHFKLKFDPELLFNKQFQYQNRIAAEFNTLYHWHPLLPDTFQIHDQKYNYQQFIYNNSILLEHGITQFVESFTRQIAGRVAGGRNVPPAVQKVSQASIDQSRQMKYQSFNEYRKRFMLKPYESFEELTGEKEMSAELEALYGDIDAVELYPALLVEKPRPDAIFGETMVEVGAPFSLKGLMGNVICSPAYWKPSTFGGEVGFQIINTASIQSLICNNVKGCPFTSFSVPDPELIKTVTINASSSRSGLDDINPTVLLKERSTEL
Nature of the assay: Potency index, ratio of celecoxib IC50 to test compound IC50 for inhibition of COX-2 (unknown origin) by colorimetric assay.

The target in assay [2] is T2, Prostaglandin G/H synthase 2 (Homo sapiens, UniProt P35354).
T2 sequence (P35354 whole entry): T1 sequence (whole entry)
The experiment in a line: Inhibition of COX-2 (unknown origin) by colorimetric assay.

For assay [3], the target named is cGMP-specific 3',5'-cyclic phosphodiesterase (Homo sapiens) (UniProt O76074). Nature of the assay: Inhibition of human PDE5 using cGMP as substrate at 10 uM preincubated for 5 mins followed by substrate addition and measured after 30 mins by HPLC analysis relative to control. The note with it: time 35.0 min.
Assay [4] has as its target T2, Prostaglandin G/H synthase 2. Nature of the assay: Inhibition of human COX-2 using arachidonic acid as substrate preincubated for 5 mins followed by substrate addition and measured after 2 mins by colorimetric assay.
In assay [5] the test system is Rattus norvegicus. The experiment in a line: Antiinflammatory activity against rat model of carrageenan induced paw edema assessed as inhibition of edema measured after 1 to 6 hrs relative to control. Particulars: time 1-6 hrs. It is filed as functional.
The species named for assay [6] is Homo sapiens. Nature of the assay: Inhibition of ROS production in human blood. It is filed as functional.
For assay [7], the species on record is Homo sapiens. Nature of the assay: Inhibition of ROS production in human blood at 25 ug/ml relative to control. It is filed as functional.
Assay [8] deals with T3, Dihydrofolate reductase (Homo sapiens, UniProt P00374).
T3 sequence (P00374 whole entry): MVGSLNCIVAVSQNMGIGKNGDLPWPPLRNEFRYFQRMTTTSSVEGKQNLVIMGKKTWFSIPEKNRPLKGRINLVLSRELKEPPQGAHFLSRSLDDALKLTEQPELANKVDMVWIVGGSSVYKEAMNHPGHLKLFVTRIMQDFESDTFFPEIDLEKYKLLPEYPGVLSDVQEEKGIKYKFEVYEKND
The experiment in a line: Inhibition of DHFR (unknown origin).

Assay [9] has as its system Rattus norvegicus. Nature of the assay: Antiinflammatory activity against rat model of carrageenan induced paw edema assessed as inhibition of edema at 50 mg/kg, po pretreated for 1 hr followed by carrageenan addition and measured after 1 to 6 hrs relative to control. The format is functional. Particulars: time 2-7 hrs. In general terms: In the carrageenan paw model, swelling and tenderness develop within hours.

For assay [10], the system named is Rattus norvegicus. The experiment in a line: Antiinflammatory activity against rat model of carrageenan induced paw edema assessed as reduction in PGE2 level in plasma at 50 mg/kg, po pretreated for 1 hr followed by carrageenan addition and measured after 6 hrs by ELISA relative to control. The format is functional. The note with it: time 7 hrs.
Assay [11] has as its system MCF7. Nature of the assay: cells. Particulars: Homo sapiens, MCF7, 48 h.
Assay [12] concerns the target Albumin (Bos taurus, UniProt P02769). The experiment in a line: Inhibition of bovine serum albumin denaturation incubated for 15 mins.
For assay [13], the system named is A549. The experiment in a line: cells. Particulars: Homo sapiens, A549, 48 h.
The test system of assay [14] is HCT-116. Nature of the assay: cells. Particulars: Homo sapiens, HCT-116, 48 h.
For assay [15], the target named is T2, Prostaglandin G/H synthase 2. Nature of the assay: Inhibition of human recombinant COX-2 by enzyme immunoassay.
The test system of assay [16] is Rattus norvegicus. Nature of the assay: Antiinflammatory activity against rat model of carrageenan induced paw edema assessed as reduction in IL-6 level in plasma at 50 mg/kg, po pretreated for 1 hr followed by carrageenan addition and measured after 6 hrs by ELISA relative to control. It is filed as functional. The note with it: time 7 hrs.
For assay [17], the system named is Rattus norvegicus. Nature of the assay: Antiinflammatory activity against rat model of carrageenan induced paw edema assessed as reduction in TNFalpha level in plasma at 50 mg/kg, po pretreated for 1 hr followed by carrageenan addition and measured after 6 hrs by ELISA relative to control. The format is functional. Particulars: time 7 hrs.
Assay [18] is filed under the species Homo sapiens. Nature of the assay: Potency index, ratio of ibuprofen IC50 to test compound IC50 for inhibition of ROS production in human blood. It is filed as functional.

Chain of Albumin (P02769 whole entry): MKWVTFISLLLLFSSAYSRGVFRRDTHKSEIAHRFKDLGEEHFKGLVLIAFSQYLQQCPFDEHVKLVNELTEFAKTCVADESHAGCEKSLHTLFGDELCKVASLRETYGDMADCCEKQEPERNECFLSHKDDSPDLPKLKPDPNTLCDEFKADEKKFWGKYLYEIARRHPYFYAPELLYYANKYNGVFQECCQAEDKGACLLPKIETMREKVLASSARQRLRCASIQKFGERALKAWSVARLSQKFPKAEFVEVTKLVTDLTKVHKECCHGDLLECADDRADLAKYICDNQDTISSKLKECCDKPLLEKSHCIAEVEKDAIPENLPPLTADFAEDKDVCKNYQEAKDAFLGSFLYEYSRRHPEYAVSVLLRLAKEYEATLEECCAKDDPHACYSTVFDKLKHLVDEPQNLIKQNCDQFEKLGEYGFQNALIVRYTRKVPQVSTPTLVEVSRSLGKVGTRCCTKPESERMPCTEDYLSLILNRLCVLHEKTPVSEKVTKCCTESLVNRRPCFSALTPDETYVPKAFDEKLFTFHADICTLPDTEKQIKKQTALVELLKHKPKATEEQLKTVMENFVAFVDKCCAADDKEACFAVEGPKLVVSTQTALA

Take `CCCCNc1cc(-c2n[nH]c(=S)n2-c2ccc(Br)cc2)cc(S(N)(=O)=O)c1Oc1ccccc1`: in assay [1], the Ratio IC50 was 12. This molecule gave an IC50 in assay [2] of 0.17 µM.
In the case of `COc1ccc(N/C(C)=C\C(=O)Nc2nccs2)cc1`, in assay [3], the inhibition was 100%.
In the case of `CCCCCC1C(C)=c2c(OCc3nnc(SCC(=O)N4CCN(c5ccccc5)CC4)o3)nn(C)c(=O)c2=C1C` (stereo not given), the concentration for half-maximal inhibition (IC50) in assay [4] stood at 6.8 µM.
In the case of `COc1ccc(-c2cc(-c3ccc(F)cc3)n(-c3ccc(S(N)(=O)=O)cc3)n2)cc1OC`, the “inhibition (INH)” value in assay [5] stood at 42.1%.
In the case of `CC(C)Cc1ccc(C(C)C(=O)O)cc1` (stereo not given) [IBUPROFEN], in assay [6], the midpoint of inhibition, the IC50, lay at 11.2 mg/L (≈ 54.3 µM).
With `CCCCNc1cc(C(=O)n2nc(C)cc2-c2ccccc2)cc(S(N)(=O)=O)c1Oc1ccccc1`, the Ratio IC50 in assay [1] is 12. In addition, the IC50 in assay [2] stood at 0.32 µM.
Turning to `CCCC(=O)Nc1ccc(OC(=O)c2ccncc2)cc1`, the IC50 in assay [6] was found to be 3.7 mg/L (≈ 13 µM). Testing at 25 µg/mL in [7] gave an inhibition in vivo of 85.4%.
For the molecule `Nc1ccc(S(=O)(=O)Nc2ncccn2)cc1` [SULFADIAZINE], half-maximal inhibition in assay [8] (IC50) required 0.13 µM.
`COc1cc(/C=C2\N=C(c3ccccc3)N(c3ccc(C(=O)O)cc3)C2=O)ccc1OC(=O)c1ccccc1` yielded an IC50 in assay [8] of 0.28 µM.
For the molecule `CC1=c2c(OCc3nnc(SCC(=O)N4CCN(c5ncccn5)CC4)o3)nn(C)c(=O)c2=C(C)C1c1ccccc1` (stereo not given), the IC50 in assay [4] was found to be 6.8 µM.
On to `COc1cc(-c2cc(-c3cccc(-n4cnnn4)c3)no2)cc(OC)c1OC`, for which the inhibition in vivo at 50 mg/kg in assay [9] came to 29.2%; in assay [10] it was 81%.
Molecule `CC1=c2c(OCc3nnc(SCC(=O)N4CCN(c5ccccc5)CC4)o3)nn(C)c(=O)c2=C(C)C1c1ccccc1` (stereo not given) registered an IC50 in assay [4] of 6.8 µM.
As for `CCOP(=O)(OCC)C(NC(=O)c1cc(-c2cccc3ccccc23)n(-c2ccc(F)cc2)n1)c1ccccc1` (stereo not given), half-maximal inhibition in [11] (IC50) required 4.37 µM.
In the case of `C/C(=C/C(=O)Nc1nccs1)Nc1ccccc1`, in assay [3], the inhibition was found to be 100%.
In [12], `COc1ccc(C2=NN(C(N)=O)C(c3cn(-c4ccccc4)nc3-c3ccccc3)C2)cc1` (stereo not given) gave an IC50 of 43.5 µM.
For `CCOc1ccc2nc(NC(=O)CSc3nnc(Cc4c[nH]c5ccccc45)o3)sc2c1`, the IC50 in [13] and in assay [14] was 6.43 µM in each case.
On to `CS(=O)(=O)c1ccc(-c2cc(-c3ccc(F)cc3)n(-c3ccc(S(N)(=O)=O)cc3)n2)cc1`, for which, in [5], the “inhibition (INH)” value is 42.1%.
Take `O=c1/c(=C/c2cccc(O)c2)sc2nc(C34CC5CC(CC(C5)C3)C4)nn12`: the half-maximal inhibitory concentration (IC50) in assay [15] worked out at 50 µM.
Consider `COc1cc(C2CC(c3cccc(-n4cnnn4)c3)=NN2C(C)=O)cc(OC)c1OC` (stereo not given), for which the inhibition in vivo at 50 mg/kg worked out at 61.6% in assay [16], 29.2% in assay [9], 81% in assay [10] and 55.4% in assay [17].
For `CCCCCC1C(C)=c2c(OCc3nnc(SCC(=O)N4CCN(c5ncccn5)CC4)o3)nn(C)c(=O)c2=C1C` (stereo not given), 6.8 µM corresponded to half-maximal inhibition in assay [4] (IC50).
In turn, `C/C(=C/C(=O)Nc1nccs1)Nc1ccc(Cl)cc1` yielded an inhibition in [3] of 100%.
`NS(=O)(=O)c1ccc(N2C(=O)/C(=C/c3ccc(OC(=O)c4ccccc4)cc3)N=C2c2ccccc2)cc1` registered a 50% inhibitory concentration (IC50) in assay [8] of 0.28 µM.
Turning to `COc1ccc(-c2cc(-c3ccc(F)cc3)n(-c3ccc(S(N)(=O)=O)cc3)n2)cc1`, the “inhibition (INH)” value in assay [5] amounted to 42.1%.
The molecule `Nc1cccc(OC(=O)c2ccncc2)c1` returned a 50% inhibitory concentration (IC50) in assay [6] of 1.42 mg/L (≈ 6.63 µM). Further, in assay [18], the “Ratio IC50” value amounted to 8. Further, the inhibition in vivo at 25 µg/mL in [7] is 95.9%.
Take `COc1cc(/C=c2\sc3nc(C45CC6CC(CC(C6)C4)C5)nn3c2=O)ccc1O`: the IC50 in assay [15] turned out to be 50 µM.
